Key:
[1] = test system: Vasokonstriktion; experiment: Topical anti-inflammatory activity: vasoconstriction test on tape-stripped back skin of healthy volunteers, visual grading 1-5 compared with DFV; type: in vivo, gesunden Probanden; conditions: Konz. der Salbe, mean of 8 volunteers, positive = better than DFV, negative = worse
Description: (§1) Die Prednison-Derivate der allgemeinen Formel I gemäß Anspruch 1 zeichnen sich gegenüber dem in handelsüblichen pharmazeutischen Präparate befindlichen, strukturanalogen Kortikoid 17α-Butyryloxy-21-chlor-9α-fluor-16β-methyl- l,4-pregnadien-3,11,20-trion durch eine günstigere Dissoziation zwischen erwünschter topischer antiinflammatorischer Wirksamkeit und unerwünschter systemischer Nebenwirkung aus, wie folgende pharmakologische Untersuchungen zeigen: • a) Ermittlung der topischen antiinflammatorischen Wirksamkeit: Die Untersuchungen werden an je 8 gesunden Probanden beider Geschlechter durchgeführt, die in den letzten zwei Wochen keine lokale Corticosteroidbehandlung erhalten hatten. Nach dem Entfernen des Stratum corneum bis zum Stratum lucidum auf dem Rücken der Probanden (20 - 40 Tesafilm-Abrisse) werden je o,l g der Zubereitung auf 4 cm^2 große Felder ohne Okklusionsverband aufgetragen. Um zu vermeiden, daß die gleiche Zubereitung jeweils auf identische Hautreale appliziert wird, wird in rotierender Folge aufgetragen. […]

[2] = test system: Pfotenödems; experiment: Undesired systemic activity: Mycobacterium butyricum-induced paw oedema in rats, oral administration; type: in vivo, SPF-Ratten; conditions: Rattus norvegicus, dose giving 50% reduction of paw oedema volume, measured 24 h after dosing, higher value = less undesired systemic effect, read-out: Systemische Wirksamkeit ED50
Description: as §1

In the case of `CCCC(=O)O[C@]1(C(=O)CCl)CC[C@H]2[C@@H]3CCC4=CC(=O)C=C[C@]4(C)[C@@]3(F)C(=O)C[C@@]21C` [Nr. 3, 17α-Butyryloxy-21-chlor-9α-fluor-1,4-pregnadien-3,11,20-trion], the “Topische Wirksamkeit, Wirkungsgrad DFV - Wirkungsgrad Substanz” value ([1]; Beobachtungszeit 4 h) is reported as -0,1, the “Topische Wirksamkeit, Wirkungsgrad DFV - Wirkungsgrad Substanz” value ([1]; Beobachtungszeit 8 h) is reported as 0,0 and the ED50 [2] is reported as 30 mg/kg.
